# Results taken from the Biogen ADME set (Fang et al. 2023).
# Settings: for aqueous solubility: pH 6.8
MDR1-MDCK efflux ratio,"intrinsic clearance, human liver microsomes [L/h/kg]","intrinsic clearance, rat liver microsomes [L/h/kg]",aqueous solubility [mg/mL],"fraction unbound, human plasma","fraction unbound, rat plasma",SMILES
4.25,1.92,32.9,0.035,–,–,CCc1nc(C)c(Cn2ccnc2-c2cnc(N3CCCC3)nc2)s1
0.685,0.613,2.31,0.0013,–,–,Cc1nc2ccc(NC(=O)c3sc(-c4ccccn4)nc3C)cc2s1
2.08,≤ 0.284,≤ 0.64,0.0157,–,–,O=C(O)c1cc(/C=C/c2csnn2)nc2ccccc12
0.641,20.4,120,0.0141,–,–,CN1CCN(Cc2noc(Cc3ccccc3)n2)c2ccccc21
–,≤ 0.284,≤ 0.64,0.0555,–,–,Cc1cc(C)nc(CNC(=O)CC2CCNCC2)n1
0.95,1.78,62.9,–,–,–,Cc1cnc(NCC2(CO)CCCC2)nc1N(C)C
0.943,≤ 0.284,1.54,0.0763,–,–,CN(c1ncc(Br)cn1)C1CCS(=O)CC1 (stereo not drawn)
0.681,1.82,7.24,0.0304,–,–,CCSCc1nc(N)c2ccccc2n1
15.9,8.35,55.2,0.0296,–,–,CC(=O)Nc1cccc(CN2CCCN(C(C)=O)c3ccccc32)c1
14.5,≤ 0.284,2.06,–,–,–,C[C@H]1Oc2cc(cnc2N)-c2c(nn(C)c2C#N)CN(C)C(=O)c2ccc(F)cc21
2.39,≤ 0.284,≤ 0.64,0.0424,–,–,O=C(O)c1ccc(=O)n(CCc2c[nH]c3ccccc23)c1
–,–,–,0.0655,–,–,Cc1ccnc(NC(=O)C2CCN(CCc3cccs3)CC2)c1
–,0.493,8.81,–,–,–,O=C(Nc1nnc[nH]1)c1ccc(C2SCCCS2)cc1
–,≤ 0.284,≤ 0.64,–,–,–,CC(C)(C)c1nc(O)c2nnn(C3CCNCC3)c2n1
36.9,1.27,4.2,0.0525,–,–,Cc1ccc2nc(C)c(C(=O)N3CCC(C(=O)Nc4ccncc4)CC3)cc2c1
0.748,0.4,6.18,–,–,–,O=c1cc2c(n[nH]1)-c1cnc(N3CCCC3)nc1CC2
0.946,3.3,34.7,0.0199,–,–,Cc1ccc(-n2ccnc2-c2ccoc2)c2cccnc12
4.48,0.291,2.82,0.0496,–,–,O=C1NCCCCC1NC(=O)N1CCc2sccc2C1 (stereo not drawn)
–,0.393,4.38,–,–,–,CN(C)C(=O)CCNc1ccnc2ccc(Cl)cc12
8.29,2.49,12.2,0.00243,–,–,O=C(CSc1nccn1C1CC1)Nc1c(Cl)cc(Cl)cc1C(=O)O

MDR1-MDCK efflux ratio,"intrinsic clearance, human liver microsomes [L/h/kg]","intrinsic clearance, rat liver microsomes [L/h/kg]",aqueous solubility [mg/mL],"fraction unbound, human plasma","fraction unbound, rat plasma",SMILES
–,–,–,0.0178,–,–,Nc1nc2c(N)ncnc2[nH]1
–,–,–,0.00031,–,–,COc1ccc(Oc2cc(C)c(-c3csc(NC(=O)c4ccncc4)n3)c(C)c2)cc1
8.3,≤ 0.284,≤ 0.64,0.0503,–,–,Cc1ccc(C(=O)N(C)C)cc1NS(C)(=O)=O
54.7,4.53,30.7,–,–,–,COc1ccccc1-n1cc(CNC(=O)N(C)Cc2c(C)nn(C)c2C)cn1
6.72,≤ 0.284,1.94,0.0616,–,–,Cc1ccc(N2CCN(C(=O)c3c(C)nc4sccn34)CC2=O)cc1
–,0.599,1.78,0.0307,–,–,Cc1noc(C2CCN(CC(N)=O)CC2)n1
–,≤ 0.284,4.56,–,–,–,COc1cccc(CNC(=O)C2(C#N)CCOCC2)c1
–,2.27,20.2,–,–,–,O=C(COc1cccc(-n2cncn2)c1)N1CCc2ccccc21
0.705,6.18,42.4,–,–,–,COc1ccc(N)c(OCc2ccccc2)c1
1.03,19.5,135,–,–,–,Cc1ccc(Cl)c(OC[C@@]2(O)CN(C3CCCC3)CC[C@@H]2O)c1
–,–,–,0.00215,–,–,CC(Sc1nc2c(cnn2-c2ccccc2)c(=O)[nH]1)C(N)=O (stereo not drawn)
–,0.504,19.4,–,–,–,CC(C)(CNc1cnn(CCO)c1)c1ccccc1
1.07,3.97,73,0.0584,–,–,COC(=O)N1CCCN(C(=O)C(=O)Nc2cccc(C(C)C)c2)CC1
2.39,0.815,14.6,–,–,–,Cc1ccc2[nH]c(CNC(=O)c3ncoc3C)nc2c1C
0.704,≤ 0.284,1.87,–,–,–,O=C(Cc1cccnc1)Nc1ncccc1Cl
0.746,0.998,8.81,–,–,–,CCc1nnc(N2CCCO2)c(C#N)c1CC
–,2.41,24.1,–,–,–,Cc1ccc(F)cc1NCc1csc(-c2cnn(C)c2)n1
8.46,≤ 0.284,1.84,–,–,–,Cc1cc(C)c2c(C(=O)N3CC4(CNC(=O)N4)C3)cc(C)nc2c1
7.7,23.5,150,–,–,–,CCCc1cc(CNS(=O)(=O)c2cc(-c3cnc(C)o3)ccc2C)on1
29.3,≤ 0.284,4.79,–,–,–,Cc1ccc(-c2ccc(N(C)CCO)nn2)c(-n2cccn2)c1

MDR1-MDCK efflux ratio,"intrinsic clearance, human liver microsomes [L/h/kg]","intrinsic clearance, rat liver microsomes [L/h/kg]",aqueous solubility [mg/mL],"fraction unbound, human plasma","fraction unbound, rat plasma",SMILES
1.33,≤ 0.284,1.7,0.0342,–,–,CON(C)C(=O)CCc1c(C)nn(C)c1C
1.23,2.26,11.3,–,–,–,Cn1cc(NC(=O)c2cnn3cccnc23)c(C2CCCCC2)n1
–,5.49,25,–,–,–,N#Cc1cccc(NCc2ccc(-c3cccnc3)o2)c1
6.24,≤ 0.284,8.12,0.0478,–,–,NC(=O)C1CCN(C(=O)CCc2ccc(Cl)cc2)CC1
35.5,–,–,–,0.0253,0.0205,N#Cc1ccc(COc2cccc(C3CCN(Cc4nc5ccc(C(=O)O)cc5n4C[C@@H]4CCO4)CC3)n2)c(F)c1
32,≤ 0.284,≤ 0.64,–,–,–,COc1nc2c(cc1CNC(=O)N1CC[C@@H](O)C1)C(=O)N(C1CCCC1)C2
11.5,≤ 0.284,19.4,–,–,–,CCN1CCC(CCNc2ncc(C)c(N(C)C)n2)CC1
–,14.4,190,0.0339,–,–,O=C(C1CCCN(S(=O)(=O)c2ccccc2)C1)N1CCc2ccccc2C1 (stereo not drawn)
0.528,17.9,39.4,0.00365,–,–,N#Cc1cccc(-c2ccc3[nH]ccc3c2)n1
–,38.6,263,0.045,–,–,O=C(C1CC1)N1CCCC(C(=O)N2CCc3ccccc3C2Cc2ccccc2)C1 (stereo not drawn)
0.701,3.99,426,–,–,–,c1ccc(NCc2ccc3c(c2)OCCCO3)nc1
–,–,–,0.00113,–,–,CCOc1ncccc1C(=O)Nc1sccc1C#N
72.5,≤ 0.284,2.29,0.0314,–,–,CN(C)Cc1csc(-c2nccn2-c2ccc3c(c2)n(C)c(=O)n3C)c1
7.09,7.94,86.4,0.033,0.0844,0.13,Cc1nnc(CN(C)CC(C)Oc2ccc(Cl)c(Cl)c2)n1C (stereo not drawn)
0.841,1.89,17.4,0.0486,–,–,Cn1ccnc1CNc1cc(Br)ccc1-n1cccn1
0.316,–,–,0.0007,0.00631,0.0241,CC1(C)Cc2cc(NC(=O)c3cnn4cccnc34)c(OCC3CC3)nc2O1
0.825,≤ 0.284,11.8,–,–,–,CC1(C)[C@H]2CC=C(CN3CCC4(CCC(=O)N4)CC3)[C@@H]1C2
2.9,0.565,13.7,–,–,–,COc1cc(CN2CCC(C(=O)N3CCOCC3)CC2)ccc1C
8.95,0.405,7.73,0.031,–,–,CCCn1ccnc1CNc1nc2c(s1)c(C)nn2C

SMILES,MDR1-MDCK efflux ratio,"intrinsic clearance, human liver microsomes [L/h/kg]","intrinsic clearance, rat liver microsomes [L/h/kg]",aqueous solubility [mg/mL],"fraction unbound, human plasma","fraction unbound, rat plasma"
Cc1ccc(Cn2nc(C)c(C(N)=O)c2Cl)cc1,0.663,0.435,21.5,0.0244,–,–
